Source: PubChem BioAssay AID330 (DTP/NCI, 2004)
Several values for one entry are separate records, joined by “and”; a condition that tells them apart may be missing. Equal entries are not always repeated. Toxic doses and inconclusive results are not listed.

System: P388 leukemia ip, CD2F1 mice, survival T/C
Test: NCI In Vivo Anticancer Drug Screen. Data for tumor model P388 Leukemia (intraperitoneal) in CD2F1 (CDF1) mice
Settings: endpoint: median survival time, higher = longer survival
Method in brief: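 Mice carrying the transplanted tumor received test compound or vehicle. Survival was recorded in each group, and the value is the treated-group measurement divided by that of the vehicle-treated control group.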

[1] = dose: 50.0 mg/kg/injection, schedule: Q01DX005 (ip), vehicle: saline with Tween-80
[2] = dose: 100.0 mg/kg/injection, schedule: Q01DX005 (ip), vehicle: saline with Tween-80
[3] = dose: 200.0 mg/kg/injection, schedule: Q01DX005 (ip), vehicle: saline with Tween-80
[4] = dose: 60.0 mg/kg/injection, schedule: Q01DX005 (ip), vehicle: saline with Tween-80
[5] = dose: 120.0 mg/kg/injection, schedule: Q01DX005 (ip), vehicle: saline with Tween-80

SMILES: CC(C)(C)C(=O)Oc1ccc(N=C(N)N)cc1
- T/C (dose: 50.0 mg/kg/injection, schedule: Q01DX005 (ip), vehicle: saline): 102 % of control
- T/C (dose: 100.0 mg/kg/injection, schedule: Q01DX005 (ip), vehicle: saline): 104 % of control
- T/C (dose: 200.0 mg/kg/injection, schedule: Q01DX005 (ip), vehicle: saline): 105 % of control

SMILES: O=C1c2ccccc2C(O)(c2ccc(Cl)cc2)c2ccc(Cl)cc21 (stereo unspecified)
- T/C [1]: 95 % of control
- T/C [2]: 98 % of control
- T/C [3]: 101 % of control

SMILES: N=c1ccn2c(n1)OC1C(O)C(CCl)OC12 (stereo unspecified)
- T/C (dose: 6.25 mg/kg/injection, schedule: Q01DX009 (ip), vehicle: saline): 108 % of control
- T/C (dose: 12.5 mg/kg/injection, schedule: Q01DX009 (ip), vehicle: saline): 111 % of control
- T/C (dose: 25.0 mg/kg/injection, schedule: Q01DX009 (ip), vehicle: saline): 106 % of control and 92 % of control
- T/C (dose: 50.0 mg/kg/injection, schedule: Q01DX009 (ip), vehicle: saline): 103 % of control and 106 % of control
- T/C (dose: 100.0 mg/kg/injection, schedule: Q01DX009 (ip), vehicle: saline): 100 % of control and 107 % of control
- T/C (dose: 200.0 mg/kg/injection, schedule: Q01DX009 (ip), vehicle: saline): 110 % of control and 117 % of control

SMILES: Cc1ccc(N=Nc2c(-c3cccs3)nn(C(N)=S)c2C(F)(F)F)cc1
- T/C (dose: 12.5 mg/kg/injection, schedule: Q01DX005 (ip), vehicle: Klucel (hydroxypropylcellulose) (HPC)): 103 % of control
- T/C (dose: 25.0 mg/kg/injection, schedule: Q01DX005 (ip), vehicle: Klucel (hydroxypropylcellulose) (HPC)): 98 % of control
- T/C (dose: 50.0 mg/kg/injection, schedule: Q01DX005 (ip), vehicle: Klucel (hydroxypropylcellulose) (HPC)): 98 % of control

SMILES: CCOC(=O)N1CCN(c2cc(C)nc3cc(OC)ccc23)CC1
- T/C [4]: 88 % of control
- T/C [5]: 94 % of control

SMILES: CCOC(=O)C(CO)NC(=O)c1cnc2ccccc2c1 (stereo unspecified)
- T/C [4]: 99 % of control
- T/C [5]: 97 % of control

SMILES: CCN(CC)CCOc1ccc(Cl)c(C)c1
- T/C [1]: 101 % of control
- T/C [2]: 103 % of control

SMILES: COc1ccc(C2=C(Cl)C(=O)N(c3ccc(O)cc3)C(=O)C2(Cl)Cl)cc1
- T/C (dose: 100.0 mg/kg/injection, schedule: Q04DX002 (ip), vehicle: Klucel (hydroxypropylcellulose) (HPC)): 106 % of control
- T/C (dose: 200.0 mg/kg/injection, schedule: Q04DX002 (ip), vehicle: Klucel (hydroxypropylcellulose) (HPC)): 107 % of control
- T/C (dose: 400.0 mg/kg/injection, schedule: Q04DX002 (ip), vehicle: Klucel (hydroxypropylcellulose) (HPC)): 116 % of control

SMILES: CC1=Nc2ccc(Cl)cc2N=C(C)C1
- T/C (dose: 100.0 mg/kg/injection, schedule: Q01DX001 (ip), vehicle: saline): 106 % of control
- T/C (dose: 200.0 mg/kg/injection, schedule: Q01DX001 (ip), vehicle: saline): 107 % of control
- T/C (dose: 400.0 mg/kg/injection, schedule: Q01DX001 (ip), vehicle: saline): 100 % of control

SMILES: CNc1nc(=O)n(-c2ccccc2)c(Cl)c1CCO
- T/C (dose: 75.0 mg/kg/injection, schedule: Q01DX001 (ip), vehicle: Klucel (hydroxypropylcellulose) (HPC)): 104 % of control
- T/C (dose: 150.0 mg/kg/injection, schedule: Q01DX001 (ip), vehicle: Klucel (hydroxypropylcellulose) (HPC)): 101 % of control
- T/C (dose: 300.0 mg/kg/injection, schedule: Q01DX001 (ip), vehicle: Klucel (hydroxypropylcellulose) (HPC)): 100 % of control

SMILES: N#Cc1c2ccccc2nc2ccccc12
- T/C [1]: 100 % of control
- T/C [2]: 96 % of control
- T/C [3]: 89 % of control

SMILES: S=c1nc(-c2ccccc2)oc(=NC2CCCCC2)n1C1CCCCC1
- T/C [1]: 98 % of control
- T/C [2]: 101 % of control
- T/C [3]: 109 % of control

SMILES: O=c1[nH]c2c([N+](=O)[O-])cc(Cl)cc2nc1/C=C(\O)c1cccc2ccccc12
- T/C (dose: 60.0 mg/kg/injection, schedule: Q01DX005 (ip), vehicle: Klucel (hydroxypropylcellulose) (HPC)): 101 % of control
- T/C (dose: 120.0 mg/kg/injection, schedule: Q01DX005 (ip), vehicle: Klucel (hydroxypropylcellulose) (HPC)): 102 % of control
- T/C (dose: 240.0 mg/kg/injection, schedule: Q01DX005 (ip), vehicle: Klucel (hydroxypropylcellulose) (HPC)): 105 % of control

SMILES: Cc1c(-c2ccc(-c3ccccc3F)cc2)nc2ccc(F)cc2c1C(=O)O
- T/C (dose: 5.62 mg/kg/injection, schedule: Q01DX005 (ip), vehicle: water): 120 % of control
- T/C (dose: 11.25 mg/kg/injection, schedule: Q01DX005 (ip), vehicle: water): 121 % of control
- T/C (dose: 45.0 mg/kg/injection, schedule: Q01DX005 (ip), vehicle: water): 157 % of control
- T/C (dose: 90.0 mg/kg/injection, schedule: Q01DX005 (ip), vehicle: water): 158 % of control

SMILES: O=C(/C(=C(/[O-])C(F)(F)F)[n+]1ccc2ccccc2c1)C(F)(F)F
- T/C (dose: 100.0 mg/kg/injection, schedule: Q01DX001 (ip), vehicle: saline with Tween-80): 100 % of control
- T/C (dose: 200.0 mg/kg/injection, schedule: Q01DX001 (ip), vehicle: saline with Tween-80): 100 % of control and 112 % of control
- T/C (dose: 400.0 mg/kg/injection, schedule: Q01DX001 (ip), vehicle: saline with Tween-80): 104 % of control and 97 % of control
